{
  "source": "ChEMBL document CHEMBL4673394",
  "about": "“Discovery of a Series of Pyrazinone RORγ Antagonists and Identification of the Clinical Candidate BI 730357” (ACS Med Chem Lett, 2021)",
  "key": {"[1]": {"assay": "Clearance in Wistar Han rat at 1 mg/kg, iv measured at 5 to 1440 mins relative to hepatic blood flow", "type": "ADME, organism-based", "details": "in vivo, time 5-1440 min"}, "[2]": {"assay": "Oral bioavailability in Wistar Han rat at 3 mg/kg measured at 15 to 1440 mins", "type": "ADME, organism-based", "details": "in vivo, time 15-1440 min"}, "[3]": {"assay": "Permeability in human Caco2 cells", "type": "ADME, cell-based", "details": "Caco-2, read-out: permeability"}},
  "data": [
    {"smiles": "CCS(=O)(=O)c1ccc(CNc2nc3cnc(-c4c(OC)ncnc4C4CC4)nc3n([C@@H](C)C3CC3)c2=O)nc1", "values": [
      {"measurement": "CL", "setting": "[1]", "value": 56, "unit": "%"}
    ]},
    {"smiles": "CNS(=O)(=O)c1ccc(CNc2nc3cnc(-c4c(C)ncnc4C4CC4)nc3n([C@@H](C)C3CC3)c2=O)nc1", "values": [
      {"measurement": "CL", "setting": "[1]", "value": 57, "unit": "%"}
    ]},
    {"smiles": "CC[C@@H](C)n1c(=O)c(NCc2ccc(S(=O)(=O)CC)cn2)nc2cnc(-c3c(OC)ncnc3C3CC3)nc21", "values": [
      {"measurement": "CL", "setting": "[1]", "value": 42, "unit": "%"},
      {"measurement": "bioavailability", "setting": "[2]", "value": 20, "unit": "%"}
    ]},
    {"smiles": "CCS(=O)(=O)c1ccc(CNc2nc3cnc(-c4c(C)ncnc4C4CC4)nc3n(C(C)C)c2=O)nc1", "values": [
      {"measurement": "CL", "setting": "[1]", "value": 16, "unit": "%"},
      {"measurement": "bioavailability", "setting": "[2]", "value": 71, "unit": "%"}
    ]},
    {"smiles": "CCS(=O)(=O)c1ccc(CNc2nc3cnc(-c4c(C)ncnc4C4CC4)nc3n([C@@H](C)C3CC3)c2=O)cn1", "values": [
      {"measurement": "CL", "setting": "[1]", "value": 19, "unit": "%"},
      {"measurement": "bioavailability", "setting": "[2]", "value": 61, "unit": "%"}
    ]},
    {"smiles": "CCS(=O)(=O)c1cnc(CNc2nc3cnc(-c4c(C)ncnc4C4CC4)nc3n([C@@H](C)C3CC3)c2=O)nc1", "values": [
      {"measurement": "CL", "setting": "[1]", "value": 29, "unit": "%"}
    ]},
    {"smiles": "CCS(=O)(=O)c1ccc(CNc2nc3cnc(-c4c(OC)ncnc4C4CC4)nc3n([C@@H](C)C(F)(F)F)c2=O)nc1", "values": [
      {"measurement": "CL", "setting": "[1]", "value": 10, "unit": "%"}
    ]},
    {"smiles": "CCS(=O)(=O)c1ccc(CNc2nc3cnc(-c4c(C)ncnc4C4CC4)nc3n([C@@H](C)C3CC3)c2=O)nc1", "values": [
      {"measurement": "CL", "setting": "[1]", "value": 23, "unit": "%"}
    ]},
    {"smiles": "CCS(=O)(=O)c1ccc(CNc2nc3cnc(-c4c(OC)ncnc4C4CC4)nc3n([C@H](C)C3CC3)c2=O)nc1", "values": [
      {"measurement": "CL", "setting": "[1]", "value": 44, "unit": "%"}
    ]},
    {"smiles": "CCS(=O)(=O)c1ccc(CNC(=O)N2CC(C)(C)c3nc(-c4c(OC)ncnc4C4CC4)ccc32)cc1", "values": [
      {"measurement": "CL", "setting": "[1]", "value": 34, "unit": "%"},
      {"measurement": "bioavailability", "setting": "[2]", "value": 90, "unit": "%"}
    ]},
    {"smiles": "Cc1ncnc(C2CC2)c1-c1ncc2nc(NCc3ccc(S(C)(=O)=O)cn3)c(=O)n([C@@H](C)C3CC3)c2n1", "values": [
      {"measurement": "Papp", "setting": "[3]", "value": 110, "unit": "×10⁻⁶ cm/s"},
      {"measurement": "CL", "setting": "[1]", "value": 16, "unit": "%"},
      {"measurement": "bioavailability", "setting": "[2]", "value": 70, "unit": "%"}
    ]},
    {"smiles": "CCS(=O)(=O)c1ccc(CNc2nc3cnc(-c4c(OC)ncnc4C4CC4)nc3n(C(C)C)c2=O)nc1", "values": [
      {"measurement": "CL", "setting": "[1]", "value": 32, "unit": "%"},
      {"measurement": "bioavailability", "setting": "[2]", "value": 70, "unit": "%"}
    ]}
  ]
}
